Here are results for two compounds from ChEMBL document CHEMBL5728071, “Optically active azabicyclo ring derivative” (2020).

The experiment concerns the target T1, Menin (Homo sapiens, UniProt O00255).
T1 sequence (O00255 whole entry): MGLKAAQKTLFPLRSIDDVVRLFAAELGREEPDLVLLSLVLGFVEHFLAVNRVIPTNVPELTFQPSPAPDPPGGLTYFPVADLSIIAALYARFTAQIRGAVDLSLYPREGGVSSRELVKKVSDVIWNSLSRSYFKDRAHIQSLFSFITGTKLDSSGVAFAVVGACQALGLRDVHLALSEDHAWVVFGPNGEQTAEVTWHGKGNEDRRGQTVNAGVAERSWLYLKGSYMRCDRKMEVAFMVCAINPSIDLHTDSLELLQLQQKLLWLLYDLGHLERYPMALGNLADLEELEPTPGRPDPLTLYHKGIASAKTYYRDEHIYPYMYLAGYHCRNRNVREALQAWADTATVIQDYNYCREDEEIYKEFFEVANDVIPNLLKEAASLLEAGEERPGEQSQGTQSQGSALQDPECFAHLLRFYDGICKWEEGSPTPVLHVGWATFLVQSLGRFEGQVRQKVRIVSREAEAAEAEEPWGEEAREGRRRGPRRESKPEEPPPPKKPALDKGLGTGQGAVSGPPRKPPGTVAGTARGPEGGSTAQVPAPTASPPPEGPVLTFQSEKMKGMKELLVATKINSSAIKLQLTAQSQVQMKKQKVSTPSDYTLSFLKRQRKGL
The experiment in a line: After the incubation, the signal was detected with RUBYstar (BMG LABTECH).

Molecules are shown by their SMILES.

With `C=C1C[C@H]2CC[C@@H]1N[C@@H]2C(=O)N1CCC2(CC1)CN(c1ncncc1Oc1ccc(F)cc1C(=O)N(C(C)C)C(C)C)C2`, the midpoint of inhibition, the IC50, lay at 7.9 nM.

Take `C=C1C[C@H]2CC[C@@H]1N[C@@H]2C(=O)N1CC2(C1)CN(c1ncncc1Oc1ccc(F)cc1C(=O)N(C(C)C)C(C)C)C2`: half-maximal inhibition (IC50) required 6.2 nM.
